Data set [1] is described as follows: Cytotoxicity assay (MTS) and bright-field microscopy, LLC-PK1-MDR1 cells. In kind it is cell-based, porcine. The conditions noted are these: pig, LLC-PK1-MDR1 cells (overexpressing P-gp), PTX alone, maximum concentration used 50 nM. How it is done: Cytotoxicity assay. Hec50co cells were seeded at 1500 cells per well in 96-well plates for 24 h in a complete medium. Later, the medium was removed and PTX, CIP2b, or CIP (all dissolved in DMSO and diluted in complete medium) were added to cells as either monotherapies or in combinations, and the plates were incubated for 72 hours. Then, the complete medium was removed and MTS reagent in the complete medium was added to wells, and the plates were incubated for 1-4 hours according to the manufacturer's protocol. Finally, the absorbance was recorded at 490 nm using a Spectra Max plus 384 Microplate Spectrophotometer (Molecular Devices, Sunnyvale, CA). Percentage cell viability was expressed as the average absorbance of the test group relative to that of the control group (untreated cells). […] Synergism was detected following the Chou-Talalay method (CI<1 indicates synergism) (Chou T C. Cancer research. 2010; 70(2):440-6, doi: 10.1158/0008-5472.CAN-09-1947) using CompuSyn software (Ver. 1.0). P-gp efflux transporter. Overexpression of the MDR1 gene, reflected in the abundance of the P-gp efflux pump, is one of the major reasons for PTX chemoresistance in cancer. In this study, LLC-PK1-WT and LLC-PK1-MDR1 cell lines were used. MTS assay and the PTX intracellular accumulation experiment were performed as previously described above.

Another data set relates to Hec50co tumors. Nature of the data set: Antitumor efficacy study, peritumoral SC injection. It is filed as in vivo, athymic Nu/Nu mice. The procedure:
Antitumor efficacy study following subcutaneous injection (SC) at the tumor site (peritumoral). Female athymic Nu/Nu mice were subcutaneously challenged with Hec50co cells (1×10^6 cells/mouse). When mice had palpable tumors, they were randomly distributed into 3 groups: PBS group (n=3), PTX group (n=4), and PTX+CIP2b group (n=4). Then, treatments were administered subcutaneously near the tumor site (i.e., peritumorally) in five doses on days 26, 30, 33, 37, and 40 post-tumor challenge. Each dose consisted of 200 μL of either PBS, 5 mg/kg PTX (Paclitaxel concentrate diluted in DPBS), or 5 mg/kg PTX+5 mg/kg CIP2b (CIP2b in DPBS:Tween-80:ethanol 85:10:5; further dilution was made using DPBS). Body weights and tumor volumes (using Equation 2) were monitored twice a week for up to 2 weeks after the last dose (i.e., up to day 53 post-tumor challenge). On the last day of the study (day 53 post-tumor challenge), mice were euthanized, and tumors were collected and their weights were measured.

The subject of the next data set is caspase 3. Nature of the data set: Caspase multiplex activity assay, caspase 3. The conditions noted are these: 72 h; PTX 5, 10 nM; CIP2b 10, 25, 50 μM. It is filed as cell-based, human. How it is done:
Apoptosis and caspase activity. The expression of caspase 3, 8, and 9 was measured using Multiplex Activity Assay Fluorometric Kit (Cat. No. ab219915, Abcam). Briefly, Hec50co cells were plated in 96-well plates at a density of 3000 per well in 100 μL of the complete medium and incubated for 24 hours. After incubation, the medium was removed, and different concentrations either in single or combination of treatments were added (PTX 5 and 10 nM; CIP2b 10, 25, and 50 μM). Cells with treatments were incubated for 24 or 72 hours. Then, the caspase kit reagents were added to the cells and incubated at room temperature for 60 minutes. Fluorescence intensity (at excitation/emission values of 535/620 nm, 490/525 nm, and 370/450 nm for caspase 3, 8, and 9, respectively) was then measured using a SpectraMax M5 microplate reader (Molecular Devices).

For the next data set, the target named is T1, human Topo I (Homo sapiens, UniProt P11387).
T1 construct: purchased TopoGEN Inc. TG1015-1A
T1 sequence (P11387 1-765): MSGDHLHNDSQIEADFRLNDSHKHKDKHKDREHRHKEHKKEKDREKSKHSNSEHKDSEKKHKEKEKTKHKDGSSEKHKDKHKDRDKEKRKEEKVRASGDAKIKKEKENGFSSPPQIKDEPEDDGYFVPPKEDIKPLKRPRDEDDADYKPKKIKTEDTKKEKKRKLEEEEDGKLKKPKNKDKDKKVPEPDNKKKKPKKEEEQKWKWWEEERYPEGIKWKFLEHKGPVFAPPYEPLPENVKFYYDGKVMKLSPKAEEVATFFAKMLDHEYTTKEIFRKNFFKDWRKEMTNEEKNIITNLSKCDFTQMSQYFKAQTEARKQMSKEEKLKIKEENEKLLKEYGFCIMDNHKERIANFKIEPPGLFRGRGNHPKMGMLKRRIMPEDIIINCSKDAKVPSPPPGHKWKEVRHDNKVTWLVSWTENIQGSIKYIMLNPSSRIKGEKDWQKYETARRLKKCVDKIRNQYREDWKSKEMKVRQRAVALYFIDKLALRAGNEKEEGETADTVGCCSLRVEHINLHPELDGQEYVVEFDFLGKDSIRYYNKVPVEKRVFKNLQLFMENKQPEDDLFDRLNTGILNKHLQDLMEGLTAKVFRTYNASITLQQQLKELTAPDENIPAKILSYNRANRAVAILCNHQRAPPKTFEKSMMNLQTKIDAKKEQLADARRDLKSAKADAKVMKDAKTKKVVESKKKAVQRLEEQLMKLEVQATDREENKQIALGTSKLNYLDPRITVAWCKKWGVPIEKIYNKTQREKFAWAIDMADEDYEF
Nature of the data set: Topoisomerase I inhibition assay (plasmid-based). It is filed as biochemical. The settings on record: drug final concentration 100 μM. How it is done: Topoisomerase I inhibition assay. A plasmid-based Topo I assay (Cat. No. TG1015-1A, TopoGEN Inc., Buena Vista, CO) was performed according to the manufacturer's instructions. Briefly, 1 μL of the test compounds (PTX, CIP, CIP2b, or CAM) at a concentration of 2 mM, was mixed with 2 μL of the reaction buffer (10× tris-glycine-SDS), and deionized water was added to make 18 μL solution. This was followed by adding 1 μL of supercoiled DNA (SC DNA) and 1 μL of human Topo I (10 U/μL) (drug final concentration was 100 μM). Also, SC DNA±Topo I was used as a control (i.e., not containing drugs). In addition, relaxed DNA was added as another control in this assay. Samples were incubated on a heating block (Isotemp 125 D Digital Heat Block, ThermoFisher Scientific) set at 37° C. for 30 minutes. Then, the reaction was stopped by adding a 5× stop buffer. Samples were then loaded directly into the wells of a 1% agarose gel (Research Products International, Mount Prospect, IL). The gel was run at 150 V until the dye front had traveled approximately 5 cm (run time was approximately 2 hours). The gel was then stained with 1 μg/mL ethidium bromide in deionized water for 15 minutes, and this was followed by de-staining (washing) with deionized water for 30 min before imaging. The image was then taken using an Invitrogen iBright CL 1500 Imaging System (ThermoFisher Scientific). The intensity of the final bands in the gel was quantified using ImageJ, and the results are expressed as the percentage of Topo I inhibition.

As to `CC(=O)O[C@H]1C(=O)[C@@]2(C)[C@H]([C@H](OC(=O)c3ccccc3)[C@]3(O)C[C@H](OC(=O)[C@H](O)[C@@H](NC(=O)c4ccccc4)c4ccccc4)C(C)=C1C3(C)C)[C@]1(OC(C)=O)CO[C@@H]1C[C@@H]2O` [PTX, paclitaxel], in data set [1], the IC50 – broadly, the midpoint of a concentration-inhibition curve – at 72 h is greater than 0.05 µM. Moreover, the “average weight of tumors” value with Hec50co tumors (day 53, SC treatment) was “did not show a significant difference against either the untreated group or the combination group”. In addition, the “average tumor volumes vs PBS” value in the data set with Hec50co tumors (day 53, 5 mg/kg PTX SC, five doses) is listed as “smaller than PBS control mice albeit not significantly”. Also, the “levels of caspase 3” value in the data set on caspase 3 was “high levels of caspase 3”. Besides, at human Topo I, the “Topo I inhibitory activity (gel)” value is given as “neither PTX nor CIP did inhibit Topo I”.

These data come from patent US20240082238A1, “COMPOSITIONS AND METHODS FOR TREATING CANCER” (UNIVERSITY OF IOWA RESEARCH FOUNDATION, priority 2021, published 2024).
